Measured values reported in patent publication US12612403B2, “Nitrogen-containing heterocyclic derivative inhibitor, and preparation method therefor and use thereof” (SHANGHAI HANSOH BIOMEDICAL CO., LTD., priority 2024, dated 2026).

How the values were obtained:
[1] = tested on: hyperlipidemia animal model of B6-hPCSK9 transgenic mice; test: In vivo pharmacodynamic study in hyperlipidemia model of B6-hPCSK9 transgenic mice (LDL-C, TC, plasma PCSK9); parameters: species or system B6-hPCSK9 transgenic C57 mice; conditions: PO administration, 10 mpk, Day 14, B6-hPCSK9 transgenic mice on high-fat feed, normalized to vehicle group
Experimental: 1. Experimental objective: The compounds of the present disclosure were evaluated for in vivo pharmacodynamics in a hyperlipidemia animal model of B6-hPCSK9 transgenic mice.
2.1 Animals: B6-hPCSK9 transgenic C57 mice, 6-8 weeks old, male, purchased from Jiangsu GemPharmatech Co., Ltd.
2.2 Animal model: After delivery to a barrier system, the animals were given one week for acclimatization and began to feed on the high-fat feed. The body weight and feed weight were weighed once a week, and the body weight and food intake thereof were recorded.
2.3 Grouping and administration • a. The animals were grouped by a random grouping method. • c. According to the grouping results, administration with the test drug was started (mode of administration: oral administration; administration volume: 10 mL/kg; frequency of administration: once/day or single administration; administration cycle: 21 days; vehicle: 10% Solutol HS 15/90% Saline). Test drug: Compounds of the present disclosure, made in house. • d. After the test drug was administered, the body weight and feed weight were weighed twice a week and blood was taken once a week. • e. The data was processed with software such as Excel. […] PCSK9 in plasma was detected by ELISA.

PCSK9 protein = molecular target: T1, PCSK9 protein (Homo sapiens, UniProt Q8NBP7); test: Binding ability to PCSK9 protein (HTRF); conditions: PCSK9-His, Alexa Fluor 647 probe compound
T1 construct: purchased Sino biology (Sino Biological) 29698-H08H
T1 sequence (Q8NBP7 153-692): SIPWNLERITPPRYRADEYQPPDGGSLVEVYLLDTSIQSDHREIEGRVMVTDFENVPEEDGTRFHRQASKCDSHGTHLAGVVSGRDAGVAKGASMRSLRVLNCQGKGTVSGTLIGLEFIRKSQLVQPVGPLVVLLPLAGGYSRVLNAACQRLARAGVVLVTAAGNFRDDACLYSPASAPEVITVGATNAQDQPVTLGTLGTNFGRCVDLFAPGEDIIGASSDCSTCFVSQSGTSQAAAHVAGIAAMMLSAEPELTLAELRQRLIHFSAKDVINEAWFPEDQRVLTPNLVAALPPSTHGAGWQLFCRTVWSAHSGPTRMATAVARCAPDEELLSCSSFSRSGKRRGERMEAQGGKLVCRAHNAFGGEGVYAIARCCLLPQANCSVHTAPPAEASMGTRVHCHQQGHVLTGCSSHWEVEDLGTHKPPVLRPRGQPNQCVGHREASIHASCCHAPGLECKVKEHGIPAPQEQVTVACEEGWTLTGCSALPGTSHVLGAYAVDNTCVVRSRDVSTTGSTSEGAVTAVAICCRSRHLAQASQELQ
Experimental: 1. Experimental objective: To detect the action of compounds to bind PCSK9 protein by an HTRF method.
3. Experimental data processing method: Four-parameter log(inhibitor) vs. response—Variable slope (four parameters) in XLit was used to perform non-linear fitting of the compound concentration and the corresponding inhibition rate, and IC50 was calculated.

[2] = tested on: PCSK9 secreted by HepG2 cells; test: Effect on the concentration of PCSK9 secreted by HepG2 cells (ELISA); type: cell-based; conditions: Homo sapiens, 48 hours, PCSK9 in culture medium by ELISA
In short: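 HepG2 cells treated with compound for 48 h at 37° C., 5% CO2. Secreted PCSK9 in medium quantified by sandwich ELISA (HRP detection, OD 450 nm) against a 0–10 ng/mL standard curve. Inhibition relative to control; IC50 fitted from concentration–inhibition data.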

Row | SMILES | LDL-C change vs vehicle (%), Day 14 [1] [%] | IC50 (PCSK9 protein) [nM] | IC50 [2] [nM]
1 | O=c1nc(O)ccn1-c1ccc(N[C@H]2CC[C@H](Nc3nc4cc(C(F)(F)F)ccn4n3)C2)nc1 [Example 78, 4-hydroxy-1-(6-(((1S,3S)-3-((7-(trifluoromethyl)-[1,2,4]triazolo[1,5-a]pyridin-2-yl)amino)cyclopentyl)amino)pyridin-3-yl)pyrimidin-2(1H)-one] | −37.98 | 10.1 | 33100
2 | O=C1c2ncccc2CN1c1cnc(N[C@H]2CC[C@H](Nc3nc4cc(OC(F)F)ccn4n3)C2)c(F)c1 [Example 151] | −31.09 | 8.1 | 12700
3 | O=c1nc(O)ccn1-c1cnc(N[C@H]2CC[C@H](Nc3nc4cc(C(F)(F)F)ccn4n3)C2)c(F)c1 [Example 183] | −48.90 | 8.8 | 4800
